In patent publication EP2348038A1, “Method for determining the activity of transglutaminase factor XIIIa” (PHILIPPS-UNIVERSITÄT MARBURG, priority 2010, dated 2011):
Values belong to the compound of their own block, whether it stands above or below them. Peptide text beside a SMILES is read from it. * marks the point of attachment. pNA = O=[N+]([O-])c1ccc(N*)cc1; Cbz = O=C(OCc1ccccc1)*

Tests used:
Assay type in all cases: biochemical
FXllla = biological target: T1, FXllla (Homo sapiens, UniProt P00488); test: Initial experiments: cleavage by FXIIIa of Glu(pNA) peptides derived from the Berichrom substrate sequence
T1 sequence (P00488 39-732 limits assumed): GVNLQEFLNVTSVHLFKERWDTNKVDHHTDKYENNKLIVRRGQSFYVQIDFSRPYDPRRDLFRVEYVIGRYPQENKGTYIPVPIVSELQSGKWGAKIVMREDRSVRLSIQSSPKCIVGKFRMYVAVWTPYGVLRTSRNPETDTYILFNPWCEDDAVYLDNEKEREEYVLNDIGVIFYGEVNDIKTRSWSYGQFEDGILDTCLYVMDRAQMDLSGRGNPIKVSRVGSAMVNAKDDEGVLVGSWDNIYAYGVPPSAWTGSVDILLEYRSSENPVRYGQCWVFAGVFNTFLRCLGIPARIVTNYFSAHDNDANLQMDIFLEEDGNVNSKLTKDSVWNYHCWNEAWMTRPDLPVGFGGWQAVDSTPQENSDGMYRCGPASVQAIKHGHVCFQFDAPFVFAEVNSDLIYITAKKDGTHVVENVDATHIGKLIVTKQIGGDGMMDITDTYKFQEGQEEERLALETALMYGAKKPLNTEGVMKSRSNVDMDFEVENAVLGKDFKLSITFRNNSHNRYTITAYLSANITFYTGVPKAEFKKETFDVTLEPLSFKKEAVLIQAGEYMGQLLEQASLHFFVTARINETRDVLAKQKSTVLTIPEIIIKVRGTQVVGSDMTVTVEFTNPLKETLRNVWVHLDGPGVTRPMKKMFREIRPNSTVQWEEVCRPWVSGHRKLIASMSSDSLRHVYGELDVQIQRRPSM

FXIIIa = test: Initial cleavage tests of Glu(pNA)/Glu(AMC) derivatives with FXIIIa (background section); settings: release of pNA or AMC; no conditions given
Excerpt: Nach derzeitigem Wissen existieren neben FXIII bzw. FXllla im Körper derzeit noch 8 weitere Transglutaminasen, dazu zählen TG1-TG7 sowie das Protein epb42, dass allerdings katalytisch unwirksam ist (Wodzinska, Mini Rev. in Med. Chem. 5 (2005) 279-292). Als erste Transglutaminase wurde das inzwischen als TG2 bezeichnete Enzym entdeckt. Dessen Aktivität lässt sich sehr einfach durch UV/VIS-spektroskopische oder fluorimetrische Messungen unter Verwendung simpler Aminosäurederiate nachweisen, beispielsweise durch Abspaltung von p-Nitroanlin aus H-Glu(pNA)-OH oder durch Abspaltung von Aminomethylcoumarin aus H-Glu(AMC)-OH (Smith et al., Anal. Biochem. 100 (1979) 136-139). […] Bisher wurden auch noch keine Peptidderivate beschrieben, die einen Glu(pNA) oder Glu(AMC)-Rest besitzen und gleichzeitig mit ausreichender Effektivität von FXllla unter Freisetzung von pNA oder AMC umgesetzt werden.

Faktor XIIIa [1] = biological target: T2, Faktor XIIIa (Homo sapiens, UniProt P00488); test: Cleavage of pNA substrates by activated factor XIIIa, absorbance at 405 nm (Michaelis-Menten kinetics and pre-test); settings: for Substratspaltung (Vortest): pre-test at constant substrate concentration, 405 nm; for Substratspaltung (Vortest) / Vmax: 37 °C; for Vmax: change of absorbance at 405 nm per s, enzyme ca. 1,25 Einheiten/ml
T2 construct: Aktivierung des Zymogens FXIII zu Faktor XIIIa; purchased Aventis Behring Fibrogammin HS
T2 sequence (P00488 39-732 limits assumed): T1 sequence (P00488 39-732 limits assumed)
Method: 250 Einheiten lyophilisiertes Fibrogammin HS (Aventis Behring) wurden in 4 ml Wasser gelöst, als 100 µl Portionen aliquotiert und bei -80 °C gelagert. 100 µl dieser Lösung enthalten 6,25 Einheiten FXIII.
100 µl des aliqotierten Fibrogammins (entspricht 6,25 Einheiten) wurden mit 500 µl TBS-Puffer (50 mM Tris-HCl, pH 7,5 in 0,9% (w/v) NaCl), 360 µl einer 0.9 % NaCl-Lösung, 10 µl einer 1 M CaCl2-Lösung und 20 µl einer Thrombinlösung (Rinderthrombin: 14,2 U in 20 µl) versetzt. Der Ansatz wurde 20 min bei 37 °C inkubiert, danach wurden 10 µl einer Lösung mit rekombinantem Hirudin zugesetzt (r-Hirudin: HBW 023 mit 13442 IU mg^-1, Stammlösung des r-Hirudin = 1 mg/ml). Dieser Aktivierungsansatz besitzt ein Gesamtvolumen von 1 ml, der aktivierte Faktor Xllla wurde bei 37 °C aufbewahrt und für die folgenden kinetischen Messungen verwendet.
Die Messungen wurden bei 405 nm und 37 °C mit einem Microplate Reader der Firma Labsystems (iEMS Reader MF) mit folgendem Messansatz durchgeführt: • 150 µl TBS-Puffer (siehe oben, der Puffer kann gegebenenfalls auch eine Aminkomponente enthalten, beispielsweise H-Gly-Ethylester oder H-Gly-Gly-Ethylester oder ein anderes Amin, falls vorhanden ist die finale Konzentration des Amins im Messansatz 2,5 mM oder höher) • 50 µl Substratlösung • 50 µl Enzymlösung (im Messansatz ca. 1,25 Einheiten/ml)
Sämtliche Lösungen wurden vor Benutzung bei 37 °C aufbewahrt, vor Zugabe der FXllla-Lösung wurde die Mikroreadermessplatte nochmals 5 min bei 37 °C im Messgerät temperiert. Nach Zugabe der FXllla-Lösung wurde die Substratspaltung gestartet und die Änderung der Absorption bei 405 nm gemessen. Für einen Vortest wurde eine konstante Substratkonzentration verwendet. […] Wir haben vermutet, dass vor allem die Aminosäuren N- und C-terminal des Glu(pNA)-Restes wichtig für die Substraterkennung sind, deshalb wurde das N-terminale Glycin und das an dritter Position befindliche Serin innerhalb der Berichromsequenz durch andere Aminosäurereste ersetzt. Durch den Vortest wurde festgestellt, dass einige dieser Substrate deutlich schneller als die Derivate S1 und S2 gespalten werden. Für ausgewählte Substrate wurden die Substratkonzentrationen im Messansatz variiert und die bestimmten Umsatzgeschwindigkeiten als Funktion der Substratkonzentration entsprechend der Michaelis-Menten-Gleichung v=Vmax·[S]/(Km+[S]) aufgetragen und somit die kinetischen Konstanten Km und Vmax bestimmt, wobei Vmax in der Einheit Absorptionsänderung bei 405 nm/s erhalten wurde. Dies ist in Fig. 1 und Fig. 2 gezeigt.

Faktor XIIIa [2] = biological target: T2, Faktor XIIIa; test: Cleavage of AMC substrates by activated factor XIIIa, fluorescence plate reader (Michaelis-Menten kinetics); settings: λEX = 380 nm, λEm = 460 nm, room temperature, enzyme ca. 0,893 Einheiten/ml
Method: Die Aliquotierung des Zymogens Faktor XIII und Aktivierung des Zymogens FXIII zu Faktor XIIIa erfolgten analog der in Beispiel 3 beschriebenen Prozedur.
Sämtliche Lösungen wurden bei Raumtemperatur aufbewahrt. Die Bestimmung der Spaltung der AMC-Substrate durch FXllla wurde mit einem Fluoreszenz-Plattenreader Safire^2 der Firma Tecan (λEX = 380 nm, λEm = 460 nm) bei Raumtemperatur durchgeführt. • 100 µl TBS-Puffer (siehe oben, der Puffer kann gegebenenfalls auch eine Aminkomponente enthalten, beispielsweise H-Gly-Ethylester oder H-Gly-Gly-Ethylester oder ein anderes Amin) • 50 µl Substratlösung • 25 µl Enzymlösung (im Messansatz ca. 0,893 Einheiten/ml)
Die Michaelis-Menten-Auftragung für die AMC-enthaltenden Substrate ist in Fig. 3 gezeigt.

Compound: CC[C@H](C)[C@H](NC(=O)[C@@H](NC(=O)[C@H](CCCCN)NC(=O)[C@H](CO)NC(=O)[C@H](CCC(=O)Nc1ccc([N+](=O)[O-])cc1)NC(C)=O)C(C)C)C(=O)NCC(N)=O [Ac-Glu(pNA)-Ser-Lys-Val-Ile-Gly-NH2] (Ac-E(pNA)SKVIG-NH2)
- Spaltung durch FXllla (FXllla): fast gar nicht oder nur sehr langsam gepalten

Compound: Cc1cc(=O)oc2cc(NC(=O)CC[C@H](N)C(=O)O)ccc12 [H-Glu(AMC)-OH]
- Spaltung durch FXIIIa (FXIIIa): nicht gespalten

Compound: N[C@@H](CCC(=O)Nc1ccc([N+](=O)[O-])cc1)C(=O)O [H-Glu(pNA)-OH]
- Spaltung durch FXIIIa (FXIIIa): nicht gespalten

Compound: CC[C@H](C)[C@H](NC(=O)[C@@H](NC(=O)[C@H](CCCCN)NC(=O)[C@H](CO)NC(=O)[C@@H](N)CCC(=O)Nc1ccc([N+](=O)[O-])cc1)C(C)C)C(=O)NCC(N)=O [H-Glu(pNA)-Ser-Lys-Val-Ile-Gly-NH2] (H-E(pNA)SKVIG-NH2)
- Spaltung durch FXllla (FXllla): fast gar nicht oder nur sehr langsam gepalten

Compound: CC[C@H](C)[C@H](NC(=O)[C@@H](NC(=O)[C@H](CCCCN)NC(=O)[C@H](CO)NC(=O)[C@H](CCC(=O)Nc1ccc([N+](=O)[O-])cc1)NC(=O)CNC(=O)[C@@H]1CCCN1C(=O)CN)C(C)C)C(=O)NCC(N)=O [H-Gly-Pro-Gly-Glu(pNA)-Ser-Lys-Val-Ile-Gly-NH2] (H-GPGE(pNA)SKVIG-NH2)
- Spaltung durch FXllla (FXllla): fast gar nicht oder nur sehr langsam gepalten

- Spaltung durch FXllla (FXllla): nur sehr langsam von FXllla gepalten
Compound: CC[C@H](C)[C@H](NC(=O)[C@@H](NC(=O)[C@H](CCCCN)NC(=O)[C@H](CO)NC(=O)[C@H](CCC(=O)Nc1ccc([N+](=O)[O-])cc1)NC(=O)CNC(=O)[C@@H]1CCCN1C(=O)CNC(=O)[C@@H](N)CC(C)C)C(C)C)C(=O)NCC(N)=O [H-Leu-Gly-Pro-Gly-Glu(pNA)-Ser-Lys-Val-Ile-Gly-NH2] (H-LGPGE(pNA)SKVIG-NH2)

Compound: CC[C@H](C)[C@H](NC(=O)[C@@H](NC(=O)[C@H](CCCCN)NC(=O)[C@H](CO)NC(=O)[C@H](CCC(=O)Nc1ccc([N+](=O)[O-])cc1)NC(=O)CNC(=O)[C@@H]1CCCN1)C(C)C)C(=O)NCC(N)=O [H-Pro-Gly-Glu(pNA)-Ser-Lys-Val-Ile-Gly-NH2] (H-PGE(pNA)SKVIG-NH2)
- Spaltung durch FXllla (FXllla): fast gar nicht oder nur sehr langsam gepalten

- Substratspaltung (Vortest) (Faktor XIIIa [1]): praktisch kaum gespalten
Compound: CC(C)C[C@H](NC(=O)[C@@H]1CCCN1C(=O)[C@H](CO)NC(=O)[C@@H](NC(=O)[C@H](CC(N)=O)NC(=O)[C@H](CCC(=O)O)NC(=O)[C@H](CCC(=O)Nc1ccc([N+](=O)[O-])cc1)NC(=O)[C@@H](N)CC(N)=O)C(C)C)C(N)=O [Substrat S1, H-Asn-Glu(pNA)-Glu-Asn-Val-Ser-Pro-Leu-NH2] (H-NE(pNA)ENVSPL-NH2)

- Substratspaltung (Vortest) (Faktor XIIIa [1]): nur langsam umgesetzt
Compound: CC[C@H](C)[C@H](NC(=O)[C@@H](NC(=O)[C@H](CCCCN)NC(=O)[C@H](CO)NC(=O)[C@H](CCC(=O)Nc1ccc([N+](=O)[O-])cc1)NC(=O)CN)C(C)C)C(=O)NCC(N)=O [Substrat S2, H-Gly-Glu(pNA)-Ser-Lys-Val-Ile-Gly-NH2] (H-GE(pNA)SKVIG-NH2)

Compound: CC[C@H](C)[C@H](NC(=O)[C@@H](NC(=O)[C@H](CCCCN)NC(=O)[C@@H](NC(=O)[C@H](CCC(=O)Nc1ccc([N+](=O)[O-])cc1)NC(=O)[C@@H](N)Cc1ccc(O)cc1)C(C)C)C(C)C)C(=O)NCC(N)=O [Substrat S10, H-Tyr-Glu(pNA)-Val-Lys-Val-Ile-Gly-NH2] (H-YE(pNA)VKVIG-NH2)
- Vmax (Faktor XIIIa [1]; pNA substrates): 0,95 × 10^-4 dOD/s

Compound: CC[C@H](C)[C@H](NC(=O)[C@@H](NC(=O)[C@H](CCCCN)NC(=O)[C@@H](NC(=O)[C@H](CCC(=O)Nc1ccc([N+](=O)[O-])cc1)NC(=O)[C@@H](N)Cc1ccc(O)cc1)C(C)C)C(C)C)C(N)=O [Substrat S12, H-Tyr-Glu(pNA)-Val-Lys-Val-Ile-NH2] (H-YE(pNA)VKVI-NH2)
- Vmax (Faktor XIIIa [1]; pNA substrates): 1.33 × 10^-4 dOD/s

Compound: CC[C@H](C)[C@H](NC(=O)[C@@H](NC(=O)[C@H](CCCNC(=N)N)NC(=O)[C@@H](NC(=O)[C@H](CCC(=O)Nc1ccc([N+](=O)[O-])cc1)NC(=O)[C@@H](N)Cc1ccc(O)cc1)C(C)C)C(C)C)C(=O)NCC(N)=O [Substrat S16, H-Tyr-Glu(pNA)-Val-Arg-Val-Ile-Gly-NH2] (H-YE(pNA)VRVIG-NH2)
- Eignung als Substrat (Faktor XIIIa [1]; pNA substrates, see Fig. 2): geeignete Substrate
- Vmax (Faktor XIIIa [1]; pNA substrates): 0,8 × 10^-4 dOD/s

- Vmax (Faktor XIIIa [2]): 9,61 dRFU/s
Compound: CC[C@H](C)[C@H](NC(=O)[C@@H](NC(=O)[C@H](CCCCN)NC(=O)[C@@H](NC(=O)[C@H](CCC(=O)Nc1ccc([N+](=O)[O-])cc1)NC(=O)[C@@H](N)CCCCN)C(C)C)C(C)C)C(=O)NCC(N)=O [Substrat S18, H-Lys-Glu(pNA)-Val-Lys-Val-Ile-Gly-NH2] (H-KE(pNA)VKVIG-NH2)

- Vmax (Faktor XIIIa [2]): 11,99 dRFU/s
Compound: CC[C@H](C)[C@H](NC(=O)[C@@H](NC(=O)[C@H](CCCCN)NC(=O)[C@H](CCCCNC(=O)OCc1ccccc1)NC(=O)[C@H](CCC(=O)Nc1ccc([N+](=O)[O-])cc1)NC(=O)[C@@H](N)Cc1c[nH]cn1)C(C)C)C(=O)NCC(N)=O [Substrat S19, H-His-Glu(pNA)-Lys(Z)-Lys-Val-Ile-Gly-NH2] (H-HE(pNA)K(Cbz)KVIG-NH2)
